Values of other authors in patent publication US11224220B2, “Surfactant composition based on glycine betaine amide salts, process for preparing same and uses thereof” (SURFACTGREEN, priority 2018, dated 2022).

Details: prior art values (U.S. Pat. No. 7,829,521; Green Chem., 2008, 10, 310-320; WO 2013/188508 Table 5)

SMILES	surface tension
CCCCCCCCCCCCNC(=O)C[N+](C)(C)C [pure glycine betaine amide]	38 mN/m
CCCCCCCCCCCCNC(=O)C[N+](C)(C)C [glycine betaine laurylamide]	50 mN/m
